Source: the supplement of paper PMC11451515

System: P12-Ichikawa
Test: cell viability relative to DMSO control; higher = less cytotoxic
Conditions: 48 h
Method in brief: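 Cells were incubated for 48 h at 37°C before CellTiter-Glo One luminescence was read. The cells were NOMO1 or SEM (500 cells/well) or P12-Ichikawa (1000 cells/well) leukemia cells, adapted for at least four passages in each medium and seeded in 1536-well plates (5 μl). Dosing used library compounds in DMSO applied by pin over 11 threefold points, 47 μM to 0.79 nM. Viability is the per-plate percentage of DMSO wells, with cell-free wells as background.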

[1] = HPLM + 10% dialyzed FBS, 0.000781 µM
[2] = HPLM + 10% dialyzed FBS, 0.00234 µM
[3] = HPLM + 10% dialyzed FBS, 0.00702 µM
[4] = HPLM + 10% dialyzed FBS, 0.0211 µM
[5] = HPLM + 10% dialyzed FBS, 0.0632 µM
[6] = HPLM + 10% dialyzed FBS, 0.19 µM
[7] = HPLM + 10% dialyzed FBS, 0.569 µM
[8] = HPLM + 10% dialyzed FBS, 1.71 µM
[9] = HPLM + 10% dialyzed FBS, 5.12 µM
[10] = HPLM + 10% dialyzed FBS, 15.4 µM
[11] = HPLM + 10% dialyzed FBS, 46.1 µM
[12] = RPMI 5 mM glucose + 10% FBS, 0.000781 µM
[13] = RPMI 5 mM glucose + 10% FBS, 0.00234 µM
[14] = RPMI 5 mM glucose + 10% FBS, 0.00702 µM
[15] = RPMI 5 mM glucose + 10% FBS, 0.0211 µM
[16] = RPMI 5 mM glucose + 10% FBS, 0.0632 µM
[17] = RPMI 5 mM glucose + 10% FBS, 0.19 µM
[18] = RPMI 5 mM glucose + 10% FBS, 0.569 µM
[19] = RPMI 5 mM glucose + 10% FBS, 1.71 µM
[20] = RPMI 5 mM glucose + 10% FBS, 5.12 µM
[21] = RPMI 5 mM glucose + 10% FBS, 15.4 µM
[22] = RPMI 5 mM glucose + 10% FBS, 46.1 µM
[23] = RPMI 5 mM glucose + 10% dialyzed FBS, 0.000781 µM
[24] = RPMI 5 mM glucose + 10% dialyzed FBS, 0.00234 µM
[25] = RPMI 5 mM glucose + 10% dialyzed FBS, 0.00702 µM
[26] = RPMI 5 mM glucose + 10% dialyzed FBS, 0.0211 µM
[27] = RPMI 5 mM glucose + 10% dialyzed FBS, 0.0632 µM
[28] = RPMI 5 mM glucose + 10% dialyzed FBS, 0.19 µM
[29] = RPMI 5 mM glucose + 10% dialyzed FBS, 0.569 µM
[30] = RPMI 5 mM glucose + 10% dialyzed FBS, 1.71 µM
[31] = RPMI 5 mM glucose + 10% dialyzed FBS, 5.12 µM
[32] = RPMI 5 mM glucose + 10% dialyzed FBS, 15.4 µM
[33] = RPMI 5 mM glucose + 10% dialyzed FBS, 46.1 µM

Compound | cell viability [1] [%] | cell viability [2] [%] | cell viability [3] [%] | cell viability [4] [%] | cell viability [5] [%] | cell viability [6] [%] | cell viability [7] [%] | cell viability [8] [%] | cell viability [9] [%] | cell viability [10] [%] | cell viability [11] [%] | cell viability [12] [%] | cell viability [13] [%] | cell viability [14] [%] | cell viability [15] [%] | cell viability [16] [%] | cell viability [17] [%] | cell viability [18] [%] | cell viability [19] [%] | cell viability [20] [%] | cell viability [21] [%] | cell viability [22] [%] | cell viability [23] [%] | cell viability [24] [%] | cell viability [25] [%] | cell viability [26] [%] | cell viability [27] [%] | cell viability [28] [%] | cell viability [29] [%] | cell viability [30] [%] | cell viability [31] [%] | cell viability [32] [%] | cell viability [33] [%]
O=C(O)Cn1nnc(-c2cc(N3CCC(Oc4cc(F)ccc4Br)CC3)no2)n1 | 97.6 | 114 | 107 | 114 | 116 | 123 | 105 | 112 | 113 | 12 | 11 | 103 | 112 | 109 | 118 | 118 | 122 | 112 | 118 | 112 | 18 | 13.4 | 93.2 | 117 | 111 | 115 | 118 | 116 | 113 | 116 | 114 | 45.6 | 17.9
O=C1c2ccccc2-[n+]2ccc3c([nH]c4ccccc43)c21 | 101 | 108 | 112 | 105 | 105 | 106 | 101 | 105 | 95.4 | 2.96 | 3.56 | 98.1 | 106 | 105 | 114 | 104 | 107 | 107 | 112 | 101 | 2.99 | 2.29 | 102 | 115 | 111 | 108 | 107 | 111 | 100 | 113 | 107 | 3.39 | 2.85
